Measurements taken from patent US8192962B2, “Processes for detecting toxic substances” (Daikin Industries, Ltd., priority 2001, dated 2012).

Test system: Unknown protein yeast genes
Assay: DNA chip mRNA expression in yeast, unknown protein yeast genes (Table 1)
Format: cell-based, Saccharomyces cerevisiae S288C
Outline: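 Whole-genome yeast DNA chip hybridization (65° C., >12 h) of Cy-labeled cDNA from S288C cells exposed 2 h at 25° C. to a sub-lethal toxicant dose in YPD; value is intensity relative to chemical-free control.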

**Q.** With `Oc1cc(Cl)c(Cl)cc1Cl` [(6), 2,4,5-trichlorophenol] as the molecule, how does the “The level of expressed mRNA in the presence of chemical substance/The level of expressed mRNA in the absence of chemical substance” value (yeast gene YKL086W, incubated two hours with chemical substance) read?
**A.** 1.0

**Q.** And the “The level of expressed mRNA in the presence of chemical substance/The level of expressed mRNA in the absence of chemical substance” value (yeast gene YKL151C, incubated two hours with chemical substance)?
**A.** 2.0

**Q.** And the “The level of expressed mRNA in the presence of chemical substance/The level of expressed mRNA in the absence of chemical substance” value (yeast gene YKL153W, incubated two hours with chemical substance)?
**A.** 2.9

**Q.** And the “The level of expressed mRNA in the presence of chemical substance/The level of expressed mRNA in the absence of chemical substance” value (yeast gene YKL195W, incubated two hours with chemical substance)?
**A.** 2.5

**Q.** What about the “The level of expressed mRNA in the presence of chemical substance/The level of expressed mRNA in the absence of chemical substance” value (yeast gene YKR018C) of the same molecule?
**A.** 1.7

**Q.** And the “The level of expressed mRNA in the presence of chemical substance/The level of expressed mRNA in the absence of chemical substance” value (yeast gene YKR049C)?
**A.** 3.0

**Q.** And the “The level of expressed mRNA in the presence of chemical substance/The level of expressed mRNA in the absence of chemical substance” value (yeast gene YKR091W, incubated two hours with chemical substance)?
**A.** 1.0

**Q.** What about the “The level of expressed mRNA in the presence of chemical substance/The level of expressed mRNA in the absence of chemical substance” value (yeast gene YLR054C, incubated two hours with chemical substance) of the same molecule?
**A.** 1.2

**Q.** What about the “The level of expressed mRNA in the presence of chemical substance/The level of expressed mRNA in the absence of chemical substance” value (yeast gene YLR149C, incubated two hours with chemical substance) of the same molecule?
**A.** 1.4

**Q.** What about the “The level of expressed mRNA in the presence of chemical substance/The level of expressed mRNA in the absence of chemical substance” value (yeast gene YLR152C, incubated two hours with chemical substance) of the same molecule?
**A.** 2.1

**Q.** And the “The level of expressed mRNA in the presence of chemical substance/The level of expressed mRNA in the absence of chemical substance” value (yeast gene YLR194C, incubated two hours with chemical substance)?
**A.** 0.9

**Q.** What about the “The level of expressed mRNA in the presence of chemical substance/The level of expressed mRNA in the absence of chemical substance” value (yeast gene YLR324W, incubated two hours with chemical substance) of the same molecule?
**A.** 1.2

**Q.** What about the “The level of expressed mRNA in the presence of chemical substance/The level of expressed mRNA in the absence of chemical substance” value (yeast gene YLR328W) of the same molecule?
**A.** 4.8

**Q.** What about the “The level of expressed mRNA in the presence of chemical substance/The level of expressed mRNA in the absence of chemical substance” value (yeast gene YLR350W, incubated two hours with chemical substance) of the same molecule?
**A.** 1.6

**Q.** What about the “The level of expressed mRNA in the presence of chemical substance/The level of expressed mRNA in the absence of chemical substance” value (yeast gene YLR387C, incubated two hours with chemical substance) of the same molecule?
**A.** 1.9

**Q.** What about the “The level of expressed mRNA in the presence of chemical substance/The level of expressed mRNA in the absence of chemical substance” value (yeast gene YLR460C) of the same molecule?
**A.** 0.6

**Q.** What about the “The level of expressed mRNA in the presence of chemical substance/The level of expressed mRNA in the absence of chemical substance” value (yeast gene YML117W, incubated two hours with chemical substance) of the same molecule?
**A.** 1.0

**Q.** And the “The level of expressed mRNA in the presence of chemical substance/The level of expressed mRNA in the absence of chemical substance” value (yeast gene YMR009W, incubated two hours with chemical substance)?
**A.** 1.2

**Q.** And the “The level of expressed mRNA in the presence of chemical substance/The level of expressed mRNA in the absence of chemical substance” value (yeast gene YMR040W)?
**A.** 2.8

**Q.** What about the “The level of expressed mRNA in the presence of chemical substance/The level of expressed mRNA in the absence of chemical substance” value (yeast gene YMR067C, incubated two hours with chemical substance) of the same molecule?
**A.** 1.4

**Q.** And the “The level of expressed mRNA in the presence of chemical substance/The level of expressed mRNA in the absence of chemical substance” value (yeast gene YMR090W)?
**A.** 3.8

**Q.** What about the “The level of expressed mRNA in the presence of chemical substance/The level of expressed mRNA in the absence of chemical substance” value (yeast gene YMR095C, incubated two hours with chemical substance) of the same molecule?
**A.** 0.7

**Q.** And the “The level of expressed mRNA in the presence of chemical substance/The level of expressed mRNA in the absence of chemical substance” value (yeast gene YMR097C, incubated two hours with chemical substance)?
**A.** 1.2

**Q.** And the “The level of expressed mRNA in the presence of chemical substance/The level of expressed mRNA in the absence of chemical substance” value (yeast gene YMR102C, incubated two hours with chemical substance)?
**A.** 6.3

**Q.** And the “The level of expressed mRNA in the presence of chemical substance/The level of expressed mRNA in the absence of chemical substance” value (yeast gene YMR107W, incubated two hours with chemical substance)?
**A.** 1.0

**Q.** And the “The level of expressed mRNA in the presence of chemical substance/The level of expressed mRNA in the absence of chemical substance” value (yeast gene YMR180C, incubated two hours with chemical substance)?
**A.** 2.4

**Q.** And the “The level of expressed mRNA in the presence of chemical substance/The level of expressed mRNA in the absence of chemical substance” value (yeast gene YMR184W, incubated two hours with chemical substance)?
**A.** 0.9

**Q.** What about the “The level of expressed mRNA in the presence of chemical substance/The level of expressed mRNA in the absence of chemical substance” value (yeast gene YMR191W, incubated two hours with chemical substance) of the same molecule?
**A.** 1.0

**Q.** What about the “The level of expressed mRNA in the presence of chemical substance/The level of expressed mRNA in the absence of chemical substance” value (yeast gene YMR295C, incubated two hours with chemical substance) of the same molecule?
**A.** 1.9

**Q.** What about the “The level of expressed mRNA in the presence of chemical substance/The level of expressed mRNA in the absence of chemical substance” value (yeast gene YMR316W, incubated two hours with chemical substance) of the same molecule?
**A.** 0.7

**Q.** And the “The level of expressed mRNA in the presence of chemical substance/The level of expressed mRNA in the absence of chemical substance” value (yeast gene YNL044W, incubated two hours with chemical substance)?
**A.** 0.9

**Q.** What about the “The level of expressed mRNA in the presence of chemical substance/The level of expressed mRNA in the absence of chemical substance” value (yeast gene YNL074C, incubated two hours with chemical substance) of the same molecule?
**A.** 1.7

**Q.** And the “The level of expressed mRNA in the presence of chemical substance/The level of expressed mRNA in the absence of chemical substance” value (yeast gene YNL092W, incubated two hours with chemical substance)?
**A.** 1.2

**Q.** What about the “The level of expressed mRNA in the presence of chemical substance/The level of expressed mRNA in the absence of chemical substance” value (yeast gene YNL115C, incubated two hours with chemical substance) of the same molecule?
**A.** 9.1

**Q.** What about the “The level of expressed mRNA in the presence of chemical substance/The level of expressed mRNA in the absence of chemical substance” value (yeast gene YNL156C, incubated two hours with chemical substance) of the same molecule?
**A.** 1.3

**Q.** And the “The level of expressed mRNA in the presence of chemical substance/The level of expressed mRNA in the absence of chemical substance” value (yeast gene YNL234W, incubated two hours with chemical substance)?
**A.** 1.3

**Q.** And the “The level of expressed mRNA in the presence of chemical substance/The level of expressed mRNA in the absence of chemical substance” value (yeast gene YNL281W, incubated two hours with chemical substance)?
**A.** 0.9

**Q.** And the “The level of expressed mRNA in the presence of chemical substance/The level of expressed mRNA in the absence of chemical substance” value (yeast gene YNL305C, incubated two hours with chemical substance)?
**A.** 1.1

**Q.** What about the “The level of expressed mRNA in the presence of chemical substance/The level of expressed mRNA in the absence of chemical substance” value (yeast gene YNR068C, incubated two hours with chemical substance) of the same molecule?
**A.** 0.4

**Q.** And the “The level of expressed mRNA in the presence of chemical substance/The level of expressed mRNA in the absence of chemical substance” value (yeast gene YOL032W, incubated two hours with chemical substance)?
**A.** 2.1

**Q.** And the “The level of expressed mRNA in the presence of chemical substance/The level of expressed mRNA in the absence of chemical substance” value (yeast gene YOL036W, incubated two hours with chemical substance)?
**A.** 1.2

**Q.** And the “The level of expressed mRNA in the presence of chemical substance/The level of expressed mRNA in the absence of chemical substance” value (yeast gene YOL047C, incubated two hours with chemical substance)?
**A.** 1.5

**Q.** And the “The level of expressed mRNA in the presence of chemical substance/The level of expressed mRNA in the absence of chemical substance” value (yeast gene YOL071W, incubated two hours with chemical substance)?
**A.** 1.7

**Q.** What about the “The level of expressed mRNA in the presence of chemical substance/The level of expressed mRNA in the absence of chemical substance” value (yeast gene YOL082W, incubated two hours with chemical substance) of the same molecule?
**A.** 1.8

**Q.** What about the “The level of expressed mRNA in the presence of chemical substance/The level of expressed mRNA in the absence of chemical substance” value (yeast gene YOL083W, incubated two hours with chemical substance) of the same molecule?
**A.** 4.5

**Q.** What about the “The level of expressed mRNA in the presence of chemical substance/The level of expressed mRNA in the absence of chemical substance” value (yeast gene YOL117W, incubated two hours with chemical substance) of the same molecule?
**A.** 2.0

**Q.** And the “The level of expressed mRNA in the presence of chemical substance/The level of expressed mRNA in the absence of chemical substance” value (yeast gene YOL131W, incubated two hours with chemical substance)?
**A.** 1.1

**Q.** And the “The level of expressed mRNA in the presence of chemical substance/The level of expressed mRNA in the absence of chemical substance” value (yeast gene YOL150C)?
**A.** 5.2

**Q.** What about the “The level of expressed mRNA in the presence of chemical substance/The level of expressed mRNA in the absence of chemical substance” value (yeast gene YOL162W, incubated two hours with chemical substance) of the same molecule?
**A.** 1.2

**Q.** And the “The level of expressed mRNA in the presence of chemical substance/The level of expressed mRNA in the absence of chemical substance” value (yeast gene YOR019W, incubated two hours with chemical substance)?
**A.** 1.3

**Q.** And the “The level of expressed mRNA in the presence of chemical substance/The level of expressed mRNA in the absence of chemical substance” value (yeast gene YOR197W, incubated two hours with chemical substance)?
**A.** 1.3

**Q.** What about the “The level of expressed mRNA in the presence of chemical substance/The level of expressed mRNA in the absence of chemical substance” value (yeast gene YPL087W, incubated two hours with chemical substance) of the same molecule?
**A.** 4.3

**Q.** What about the “The level of expressed mRNA in the presence of chemical substance/The level of expressed mRNA in the absence of chemical substance” value (yeast gene YPL196W, incubated two hours with chemical substance) of the same molecule?
**A.** 2.0

**Q.** What about the “The level of expressed mRNA in the presence of chemical substance/The level of expressed mRNA in the absence of chemical substance” value (yeast gene YPL206C, incubated two hours with chemical substance) of the same molecule?
**A.** 1.8

**Q.** What about the “The level of expressed mRNA in the presence of chemical substance/The level of expressed mRNA in the absence of chemical substance” value (yeast gene YPL222W, incubated two hours with chemical substance) of the same molecule?
**A.** 2.2

**Q.** What about the “The level of expressed mRNA in the presence of chemical substance/The level of expressed mRNA in the absence of chemical substance” value (yeast gene YPR023C, incubated two hours with chemical substance) of the same molecule?
**A.** 1.4

**Q.** And the “The level of expressed mRNA in the presence of chemical substance/The level of expressed mRNA in the absence of chemical substance” value (yeast gene YPR151C, incubated two hours with chemical substance)?
**A.** 1.6
